In PMC6563099, “Novel Thienopyrimidine Derivative, RP-010, Induces β-Catenin Fragmentation and Is Efficacious against Prostate Cancer Cells” (Cancers, 2019):
Like-named read-outs stand apart in the source and are kept apart here.

Tests used:
DU145 [1] = assay: Time-dependent cell confluence (live cell imaging), DU145; type: cell-based
Method: The cytotoxicity of RP-010, over time, was determined using DU145 cells. The cells were seeded and incubated as previously described. The DU145 cells were incubated with vehicle or RP-010 for 72 h. The pictures were taken over time, at a snapshot interval of 15 min, from the same spot of the flask using the CytoSMART™ Lux 10X system (LONZA biosciences Walkersville, MD, USA) for live cell imaging.

[2] = test system: Wnt/β-catenin signaling pathway proteins in DU145 cells; assay: Western analysis of Wnt/β-catenin signaling pathway proteins, DU145; type: cell-based
Method: (§1) DU145 cells were incubated with RP-010 ((1 or 2 µM) for 24 h. Thereafter, the cells were subjected to a two-step lysis process to extract and separate the cytosolic and the nuclear proteins, as previously described. Next, protein separation for both cytosolic and nuclear proteins was achieved by electrophoresing the samples through acrylamide SDS-PAGE gels, followed by transfer to a PVDF membrane. The PVDF membrane was then incubated overnight with the following primary antibodies: rabbit α-tubulin, 1:4000 dilution, rabbit BAX (1:1000), rabbit BAK (1:1000), rabbit cytochrome c (1:1000), rabbit PARP (1:5000), rabbit β-Catenin (1:4000), rabbit DVL3 (1:4000), rabbit LRP-6 (1:1000), rabbit P-LRP-6 (1:1000), rabbit c-Myc (1: 4000), rabbit cyclin B1 (1:2000), rabbit Wnt 5a (1:1000), rabbit naked 1 and naked 2 (1:1000), mouse E-cadherin (1:4000), mouse N-cadherin (1:4000), mouse β-actin (1:5000) and rabbit histone (1:3000). Finally, protein expression levels were determined as described previously. In the Figure 3, Figure 5 and Figure S8, the protein blots above β-actin were cytosolic lysates, while all the proteins below β-actin and above histones (loading controls) were nuclear lysates.

[3] = test system: Bak, Bax, Bcl2, caspase 3, PARP, cytochrome c in DU145 cells; assay: Western analysis of apoptosis-regulating proteins, DU145; type: cell-based; details: 1 or 2 μM, 24 h
Method: as §1

PC-3 [4] = assay: MTT cytotoxicity assay, PC-3 prostate cancer cells; type: cell-based; details: MTT assay, means ± SDs of three independent experiments, read-out: IC50 ± SD, Prostate Cancer Cells, PC-3
Method: (§2) All the cells were cultured as adherent monolayers in culture flasks, and were used to determine the anti-cancer efficacy of RP-010. DMEM supplemented with 4.5 g of glucose, 10% fetal bovine serum (FBS) and 1% penicillin/streptomycin, was used to augment cell growth. Finally, the cells were incubated and grown in a humidified incubator containing 5% CO2 at 37 °C [50]. […] Cells were obtained from frozen stocks and cell passaging (up to P4) was performed at 80% cell confluency, using PBS and trypsin + 2.2-mM EDTA.
(§3) MTT assays were used to determine the cytotoxicity of the RP compounds, to PC cell lines, as previously described.

DU145 [5] = assay: MTT cytotoxicity assay, DU145 prostate cancer cells; type: cell-based; details: means ± SDs of three independent experiments, read-out: IC50 ± SD, Prostate Cancer Cells, DU145
Method: as §2, §3

zebrafish = assay: Zebrafish toxicity model; type: in vivo
Method: The zebrafish toxicity studies were conducted as previously described. Five days-post fertilization larvae (5 fish/well) were exposed to vehicle or RP-010 (0, 0.3, 1, 3, 6, and 10 µM). Subsequently, the zebrafish were observed visually, and pictures were taken at 24- and 48-hour post exposure (hpe). […] The zebrafish studies were approved by the University of Toledo Institutional Animal Care and Use Committee (#105414, approved on 10/2018).

DU145 [6] = assay: Transwell migration assay, DU145; type: cell-based; details: 0.5, 1 or 2 μM, 24 h
Method: The assay was done as previously described. The effect of RP-010, (0.5, 1 or 2 µM) on the migration of PC cells was tested using 24 trans-well inserts with an […] pore size. The addition of the insert to the well forms two chambers (upper and lower), where the upper chamber was used to grow the cells on the porous membrane. The lower chamber was filled with 600-μL cell-free DMEM medium. 200-μL of the cell suspension was added to each insert, and cells allowed to attach for 1 h. The test compound was added in different concentrations and incubated with the cells for 24 h. […] Finally, the remaining migrated cells were fixed by methanol, and stained with 0.1% crystal violet dye and counted with an EVOS microscope. The number of migrated cells was counted for the cultures incubated with vehicle or RP-010.

PC-3 [7] = assay: Oxidative stress (H2DCFDA fluorescence), PC-3; type: cell-based; details: 1, 2 and 4 µM, 24 h, vs vehicle
Method: (§4) The compound 2′,7′-dichlorofluorescin (H2DCFDA) was used to detect changes in the oxidative stress status, as previously described in PC-3 and DU145. […] The cells were then washed 3 times with 1× PBS for 5 min each. The level of reactive oxygen species was then measured, based on the fluorescence level of oxidized H2DCFDA dye (excitation at 485 nm and emission at 535 nm), using an EVOS digital fluorescent microscope at 40×.

DU145 [8] = assay: Wound healing assay, DU145; type: cell-based; details: 0.5, 1, 2 or 4 µM, 12-48 h, vs vehicle
Method: This assay was conducted using DU145 and PC-3 cells as previously described. Upon confluence, 200 μL sterile tips were used to create a wound by gently scratching the complete cell monolayer. Sterile PBS was used to wash the cells several times to remove any floating cells. Different concentrations of the test compound were prepared in the culture media and added immediately after wound formation. The closure of the wound was observed by taking pictures at different time points by the EVOS microscope (Thermo Fisher Scientific, Wayne, MI, USA). Finally, the area of the wounds, at different time points, was calculated using Image J software (NIH, Bethesda, MD, USA).

DU145 [9] = assay: Oxidative stress (H2DCFDA fluorescence), DU145; type: cell-based; details: 0.5, 1, 2 or 4 µM, 24 h, vs vehicle
Method: as §4

[10] = DU145, 1 or 2 μM, 24 h, p < 0.01

COc1ccc(-c2nc3sc4c(c3c(=O)[nH]2)CCCC4)cc1 [RP10]
Cell growth over time (confluence) (DU145 [1]; 0.5 µM, after 24 h of incubation, p < 0.05): significantly decreased | Cell growth over time (confluence) (DU145 [1]; 1 µM, after 12 h of incubation, p < 0.01): significantly decreased | Expression levels of N-cadherin ([2]; 1 and 2 µM): did not significantly alter | Accumulation of lower molecular weight β-catenin fragments (P3, P4) ([2]; DU145, 1 or 2 μM, 24 h): increased the accumulation | Fragmentation of full-length β-catenin (p92) into lower molecular weight fragments (≈70 kDa) ([2]; DU145, 1 or 2 μM, 24 h): significant fragmentation | Levels of E-cadherin ([2]; DU145, 1 or 2 μM, 24 h): did not significantly alter | Levels of Wnt 5a ([2]; DU145, 1 or 2 μM, 24 h): no significant change | Levels of nuclear c-Myc ([2]; DU145, 1 or 2 μM, 24 h): significantly decreased | Levels of total active β-catenin ([2]; DU145, 1 or 2 μM, 24 h): significant decrease | Nuclear levels of Naked 1 ([2]; DU145, 1 or 2 μM, 24 h): significantly increased | Nuclear levels of Naked 2 ([2]; DU145, 1 or 2 μM, 24 h): significantly increased | Nuclear levels of cyclin B1 ([2]; DU145, 1 or 2 μM, 24 h): not significantly altered | Levels of cytosolic Naked 1 ([2]; DU145, 1 or 2 μM, 24 h, p < 0.001): significantly decreased | Cytosolic levels of cyclin B1 [2, 10]: decreased significantly | Levels of DVL3 [2, 10]: significantly decreased | Levels of cytosolic Naked 2 [2, 10]: significantly decreased | Levels of phosphorylated LRP-6 (P-LRP-6) [2, 10]: significantly decreased | Levels of LRP-6 ([2]; DU145, 1 or 2 μM, 24 h, p < 0.05): significantly decreased | Expression of Bax [3]: did not significantly alter | Levels of cytochrome c [3]: did not significantly alter | Levels of total cytosolic PARP [3]: significantly reduced | Cleavage of caspase-3 ([3]; p < 0.001): significantly increased | Expression of Bcl2 ([3]; p < 0.01): significantly downregulated | Levels of cleaved nuclear PARP ([3]; p < 0.01): increased | Levels of cleaved cytosolic PARP ([3]; p < 0.05): significantly increased | Expression level of Bak, increase ([3]; vs vehicle, p < 0.01): ≥ 2 fold | IC50 (PC-3 [4]; listed as RP-010): < 1 µM | IC50 (PC-3 [4]): 0.3 ± 0.1 µM | IC50 (DU145 [5]; Homo sapiens, DU-145, MTT assay): < 1 µM | IC50 (DU145 [5]; MTT assay): 0.5 ± 0.2 µM | Concentration well tolerated / without significant toxic effects (zebrafish; zebrafish): up to 6 µM | Mortality (zebrafish; zebrafish larvae, 0.3, 1, 3, 6 or 10 µM, 24 and 48 h exposure): did not significantly increase | Number of cells migrating across the membrane (transwell) (DU145 [6]): significantly decreased | Reactive oxygen species (ROS) level (PC-3 [7]): elevated ROS levels | Wound healing (cell migration) (DU145 [8]): significant decrease | Reactive oxygen species (ROS) level (DU145 [9]): significantly higher levels
